Like-named read-outs stand apart in the source and are kept apart here.
How the values were obtained:
human PRMT8 = human PRMT8 (Homo sapiens, UniProt Q9NR22); experiment: PRMT8 Biochemical Assay; details: PRMT8 IC50 (uM), peptide substrate, 3H-SAM Flashplate assay
Text: S-adenosylmethionine (SAM), S-adenosylhomocysteine (SAH), bicine, Tween20, dimethylsulfoxide (DMSO), bovine skin gelatin (BSG), isopropyl-3-D-thiogalactopyranoside (IPTG), and Tris(2-carboxyethyl)phosphine hydrochloride solution (TCEP) were purchased from Sigma-Aldrich at the highest level of purity possible. ^3H-SAM was purchase from American Radiolabeled Chemicals with a specific activity of 80 Ci/mmol. 384-well streptavidin Flashplates were purchased from PerkinElmer.
E. coli (BL21(DE3) Gold, Stratagene) made competent by the CaCl2 method were transformed with the PRMT8 construct and ampicillin selection. Protein over-expression was accomplished by growing the PRMT8 expressing E. coli clone and inducing expression with 0.3 mM IPTG at 16° C. The culture was grown for 12 hours, harvested by centrifugation, and stored at −80° C. for purification.
GST-tagged PRMT8 was eluted with 50 mM Tris, 2 mM glutathione, pH 7.8. Pooled fractions were cleaved by thrombin (10U) and dialysed in buffer A. GST was removed by reloading the cleaved protein sample onto glutathione sepharose column and PRMT8 was collected in the flow-through fractions. PRMT8 was purified further by ceramic hydroxyapatite chromatography. The column was washed with 50 mM phosphate buffer, 100 mM NaCl, 5% glycerol, 5 mM β-mercaptoethanol, pH 7.8 and PRMT8 was eluted by 100 mM phosphate in the same buffer. Protein was concentrated and buffer was exchanged to 50 mM Tris, 300 mM NaCl, 10% glycerol, 5 mM β-mercaptoethanol, pH 7.8 by ultrafiltration.
General Procedure for PRMT8 Enzyme Assays on Peptide Substrates.
The assays were all performed in a buffer consisting of 20 mM Bicine (pH=7.6), 1 mM TCEP, 0.005% BSG, and 0.002% Tween 20, prepared on the day of use. […] DMSO (1 ul) was added to Columns 11, 12, 23, 24, rows A-H for the maximum signal control and 1 ul of SAH, a known product and inhibitor of PRMT8, was added to columns 11, 12, 23, 24, rows I-P for the minimum signal control. A cocktail (40 ul) containing the PRMT8 enzyme was added by Multidrop Combi (Thermo-Fisher). The compounds were allowed to incubate with PRMT8 for 30 min at room temperature, then a cocktail (10 ul) containing ^3H-SAM and peptide was added to initiate the reaction (final volume=51 ul). […] The assays were stopped by the addition of non-radiolabeled SAM (10 ul) to a final concentration of 400 uM, which dilutes the ^3H-SAM to a level where its incorporation into the peptide substrate is no longer detectable. 50 ul of the reaction in the 384-well polypropylene plate was then transferred to a 384-well Flashplate and the biotinylated peptides were allowed to bind to the streptavidin surface for at least 1 hour before being washed once with 0.1% Tween20 in a Biotek ELx405 plate washer. The plates were then read in a PerkinElmer TopCount plate reader to measure the quantity of ^3H-labeled peptide bound to the Flashplate surface, measured as disintegrations per minute (dpm) or alternatively, referred to as counts per minute (cpm).
Where dpm=disintegrations per minute, cmpd=signal in assay well, and min and max are the respective minimum and maximum signal controls.
Where top and bottom are the normally allowed to float, but may be fixed at 100 or 0 respectively in a 3-parameter fit. The Hill Coefficient normally allowed to float but may also be fixed at 1 in a 3-parameter fit. Y is the % inhibition and X is the compound concentration.

human PRMT1 = biological target: T1, human PRMT1 (Homo sapiens, UniProt Q99873); experiment: PRMT1 Biochemical Assay; details: peptide substrate, 3H-SAM Flashplate assay; read-out: PRMT1 IC50
T1 construct: GST-tagged PRMT1; made in house; host or cells: High Five insect cells (baculovirus, pFastBac1)
T1 sequence (Q99873 with tags, fused parts or gaps): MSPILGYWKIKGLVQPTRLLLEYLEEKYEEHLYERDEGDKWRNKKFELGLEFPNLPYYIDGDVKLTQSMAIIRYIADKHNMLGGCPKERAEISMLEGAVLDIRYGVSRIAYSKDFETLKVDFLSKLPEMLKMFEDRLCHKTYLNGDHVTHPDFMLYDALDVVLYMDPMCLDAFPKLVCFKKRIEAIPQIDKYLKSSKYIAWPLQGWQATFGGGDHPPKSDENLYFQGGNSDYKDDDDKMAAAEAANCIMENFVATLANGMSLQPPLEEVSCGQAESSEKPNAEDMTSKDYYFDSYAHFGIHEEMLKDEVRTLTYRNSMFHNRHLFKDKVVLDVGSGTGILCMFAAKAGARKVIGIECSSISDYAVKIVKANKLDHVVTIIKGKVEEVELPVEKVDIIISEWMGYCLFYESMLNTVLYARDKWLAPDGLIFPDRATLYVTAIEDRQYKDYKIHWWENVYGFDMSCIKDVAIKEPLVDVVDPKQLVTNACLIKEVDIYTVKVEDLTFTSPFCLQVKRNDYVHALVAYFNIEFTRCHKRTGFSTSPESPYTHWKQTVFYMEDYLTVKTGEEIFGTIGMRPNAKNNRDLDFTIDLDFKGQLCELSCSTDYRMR
How it was run: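 GST-tagged PRMT1 from baculovirus-infected cells, preincubated with compounds 30 min at room temperature in 20 mM Bicine pH 7.6, 1 mM TCEP, 0.005% BSG, 0.002% Tween 20. Reaction started with ³H-SAM plus biotinylated peptide, stopped with 300 µM cold SAM.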

human PRMT6 = biological target: T2, human PRMT6 (Homo sapiens, UniProt Q96LA8); experiment: PRMT6 Biochemical Assay
T2 construct: Flag-PRMT6-His; made in house; host or cells: HEK 293F cells (BacMam baculovirus, pFastBacMam)
T2 sequence (Q96LA8 with tags, fused parts or gaps): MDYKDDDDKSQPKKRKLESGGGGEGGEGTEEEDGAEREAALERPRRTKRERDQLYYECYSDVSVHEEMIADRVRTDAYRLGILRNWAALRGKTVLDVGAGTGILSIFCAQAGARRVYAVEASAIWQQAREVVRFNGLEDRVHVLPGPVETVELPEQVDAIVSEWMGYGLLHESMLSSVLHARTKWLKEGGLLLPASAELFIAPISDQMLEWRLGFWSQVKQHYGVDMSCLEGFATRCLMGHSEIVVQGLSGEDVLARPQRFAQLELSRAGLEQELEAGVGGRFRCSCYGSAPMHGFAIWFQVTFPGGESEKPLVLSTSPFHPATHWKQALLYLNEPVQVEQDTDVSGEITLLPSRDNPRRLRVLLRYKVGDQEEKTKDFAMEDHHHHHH

[1] = tested on: mono-methyl arginine in RKO cells; experiment: RKO Methylation Assay, In Cell Western (ICW); format: cell-based; details: 72 hours
[2] = peptide substrate, 3H-SAM Flashplate assay, read-out: PRMT6 IC50

Sequence of human PRMT8 (Q9NR22 whole entry): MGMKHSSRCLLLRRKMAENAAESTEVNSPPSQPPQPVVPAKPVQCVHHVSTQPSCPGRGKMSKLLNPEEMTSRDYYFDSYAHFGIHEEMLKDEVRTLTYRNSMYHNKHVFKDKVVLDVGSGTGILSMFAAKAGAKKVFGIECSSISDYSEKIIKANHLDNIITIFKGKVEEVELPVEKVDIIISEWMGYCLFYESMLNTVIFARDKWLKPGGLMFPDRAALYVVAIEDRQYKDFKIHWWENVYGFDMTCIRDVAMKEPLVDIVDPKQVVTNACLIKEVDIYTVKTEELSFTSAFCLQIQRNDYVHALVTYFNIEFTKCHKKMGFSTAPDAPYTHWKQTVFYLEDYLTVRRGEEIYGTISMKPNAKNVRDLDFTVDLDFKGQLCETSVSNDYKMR

SMILES | IC50 (human PRMT8) | IC50 (human PRMT1) | IC50 (human PRMT6; [2]) | ICW EC30 [1] | IC50 (human PRMT6; PRMT6 IC50 (uM))
CNCCN(C)Cc1ccnn1C1CCC2(CCOCC2)CC1 [Compound 59] | 0.042 µM | 12.2 nM | 0.0347 µM | 246.4 nM | –
CNCCN(C)Cc1c[nH]nc1-c1ccc(OCCOc2ccccc2)cc1 [Compound 61] | 0.0374 µM | 12.9 nM | 0.0114 µM | 130 nM | –
CNCCN(C)Cc1c[nH]nc1-c1ccc(OCCOc2cccc(C(C)C)c2)cc1 [Compound 62] | 0.0363 µM | 12.9 nM | 0.00431 µM | 1378 nM | –
CNCCN(C)Cc1ccnn1C1CCC2(CCCO2)CC1 (stereo not shown) [Compound 63] | 0.0445 µM | 13.1 nM | 0.0317 µM | 172.7 nM | –
CCC(CC)Oc1ccc(-n2nc(C)cc2CN(C)CCNC)cc1 [Compound 65] | 0.0299 µM | 14.1 nM | – | 215.6 nM | 0.136 µM
CNCCN(C)Cc1c[nH]nc1-c1ccc(N2CCCCC2)nc1 [Compound 66] | 0.0371 µM | 14.2 nM | 0.0408 µM | 393.1 nM | –
CNCCN(C)Cc1c[nH]nc1-c1ccc(OCCCOC)c(OCC2CCOC2)c1 (stereo not shown) [Compound 68] | 0.295 µM | 14.8 nM | 0.038 µM | 3454 nM | –
CNCCN(C)Cc1c[nH]nc1-c1ccc(N(CCCN2CCOCC2)CC(C)C)nc1 [Compound 69] | 0.0312 µM | 14.9 nM | 2.54 µM | 1337 nM | –
CNCCN(C)Cc1c[nH]nc1-c1cc(CC(F)(F)F)cc(OCCOC)c1 [Compound 70] | 0.0511 µM | 15.2 nM | – | 494 nM | 1.27 µM
CNCCN(C)Cc1c[nH]nc1-c1cc(CC(C)C)cc(OCCOC)c1 [Compound 71] | 0.0452 µM | 15.3 nM | 4.39 µM | 680 nM | –
CNCCN(C)Cc1c[nH]nc1-c1ccc(OCCOc2ccc(OCCOC)cc2)cc1 [Compound 72] | 0.035 µM | 15.3 nM | 0.0101 µM | 163 nM | –
CNCCN(C)Cc1c[nH]nc1-c1ccc(C#N)cc1 [Compound 74] | 0.0231 µM | 16.1 nM | – | 541 nM | 0.027 µM
CNCCN(C)Cc1ccnn1-c1ccc(OCC2CC2)cc1 [Compound 75] | 0.0487 µM | 16.2 nM | 0.0495 µM | 538.1 nM | –
CNCCN(C)Cc1c[nH]nc1-c1ccc(N2CCCC2)nc1 [Compound 78] | 0.0309 µM | 18.3 nM | – | 757.1 nM | 0.0395 µM
CNCCN(C)Cc1ccnn1-c1ccc(OC(C)C)cc1 [Compound 80] | 0.0494 µM | 19.8 nM | 0.114 µM | 411 nM | –
CNCCN(C)Cc1c[nH]nc1-c1ccc2oc(C(C)C)nc2c1 [Compound 81] | 0.0947 µM | 19.9 nM | 0.0445 µM | 927 nM | –
CNCCN(C)Cc1c[nH]nc1-c1ccc(OC(C)C)nc1 [Compound 83] | 0.0337 µM | 20.5 nM | 0.069 µM | 200 nM | –

SMILES | IC50 (human PRMT8) | IC50 (human PRMT1) | IC50 (human PRMT6; [2]) | ICW EC30 [1] | IC50 (human PRMT6; PRMT6 IC50 (uM))
CNCCN(C)Cc1c[nH]nc1-c1ccc(OC2CCC(OC)CC2)cc1 (stereo not shown) [Compound 86] | 0.0686 µM | 22.5 nM | 0.0196 µM | 836 nM | –
CNCCN(C)Cc1c[nH]nc1-c1ccc(OCCCOC)c(OCC2CCOCC2)c1 [Compound 87] | 0.424 µM | 22.7 nM | 0.0783 µM | 6199 nM | –
CNCCN(C)Cc1cnn(C)c1-c1ccc(OC2CCOCC2)cc1 [Compound 88] | 0.0267 µM | 23 nM | 0.0235 µM | 1236 nM | –
CNCCN(C)Cc1c[nH]nc1-c1ccc(OC2CCC(OC(C)C)CC2)cc1 (stereo not shown) [Compound 89] | 0.0475 µM | 23.1 nM | 0.0251 µM | 449.1 nM | –
CNCCN(C)Cc1c[nH]nc1-c1ccc(OCCOc2cccnn2)cc1 [Compound 90] | 0.117 µM | 24.2 nM | 0.0199 µM | 2491 nM | –
CNCCN(C)Cc1c[nH]nc1-c1ccc(S(C)(=O)=O)cc1 [Compound 92] | 0.043 µM | 24.7 nM | 0.0309 µM | 2126 nM | –
CNCCN(C)Cc1c[nH]nc1-c1cc(OCCOC)cc(C(C)C)c1 [Compound 95] | 0.0843 µM | 25.8 nM | 0.771 µM | 726 nM | –
CNCCN(C)Cc1cnn(CCOC)c1-c1ccc(OC(C)C)cc1 [Compound 97] | 0.0601 µM | 28.2 nM | – | 1994 nM | 0.106 µM
CNCCN(C)Cc1c[nH]nc1-c1ccc(OC2CCC(OCCOC)CC2)cc1 (stereo not shown) [Compound 98] | 0.113 µM | 28.5 nM | 0.0289 µM | 868.5 nM | –
CNCCN(C)Cc1c[nH]nc1-c1ccc(N2CCCC2=O)cc1 [Compound 99] | 0.127 µM | 29.7 nM | 0.0633 µM | 3944 nM | –
CNCCN(C)Cc1c[nH]nc1-c1ccc(N(C)CC(C)C)cc1 [Compound 102] | 0.0819 µM | 31.9 nM | – | 1057 nM | 0.236 µM
CNCCN(C)Cc1c[nH]nc1-c1cc(OCC2CCOC2)cc(C(F)(F)F)c1 (stereo not shown) [Compound 104] | 0.226 µM | 33.3 nM | – | 1467 nM | 2.9 µM
CCOCC(C)(C)c1ccc(-c2n[nH]cc2CN(C)CCNC)cc1 [Compound 105] | 0.106 µM | 34 nM | – | 2748 nM | 0.0559 µM
CNCCN(C)Cc1c[nH]nc1-c1cc(OC)c(CC(C)C)c(OC)c1 [Compound 108] | 0.0712 µM | 35.7 nM | – | 2967 nM | 0.824 µM
CCC(CC)Oc1ccc(-n2ncc(C)c2CN(C)CCNC)cc1 [Compound 114] | 0.0836 µM | 38.1 nM | 0.59 µM | 1855 nM | –
CNCCN(C)Cc1c[nH]nc1-c1cc(F)c(OCC2CCOCC2)c(C(F)(F)F)c1 [Compound 116] | 0.118 µM | 39.1 nM | – | 3806 nM | 0.0184 µM

Second part, led by results:

IC50 (human PRMT8) | IC50 (human PRMT1) | IC50 (human PRMT6; [2]) | SMILES | ICW EC30 [1] | IC50 (human PRMT6; PRMT6 IC50 (uM))
0.0525 µM | 12.7 nM | 1.2 µM | CCCOCCOc1cc(-c2n[nH]cc2CN(C)CCNC)cc(C(F)(F)F)c1 [Compound 60] | 1263 nM | –
0.249 µM | 13.9 nM | 0.0535 µM | CNCCN(C)Cc1c[nH]nc1-c1ccc(OCCCOC)c(OC2CCOCC2)c1 [Compound 64] | 4628 nM | –
0.171 µM | 19.8 nM | 0.105 µM | CNCCN(C)Cc1c[nH]nc1-c1cnc(OCCOC)c(C(F)(F)F)c1 [Compound 79] | 2611 nM | –
0.189 µM | 20.3 nM | 0.0777 µM | CNCCN(C)Cc1c[nH]nc1-c1cnc(OCCCOC)c(C(F)(F)F)c1 [Compound 82] | 4060 nM | –
0.228 µM | 20.7 nM | 0.707 µM | CNCCN(C)Cc1c[nH]nc1-c1cc(OC2CCOC2)cc(C(F)(F)F)c1 (stereo not shown) [Compound 84] | 4957 nM | –
0.0853 µM | 21.3 nM | 0.0144 µM | CNCCN(C)Cc1c[nH]nc1-c1ccc(OC2CC(O)C2)cc1 (stereo not shown) [Compound 85] | 3594 nM | –
0.282 µM | 24.7 nM | 0.0322 µM | CNCCN(C)Cc1c[nH]nc1-c1ccc(OCC2COC2)cc1 [Compound 91] | 3058 nM | –
0.326 µM | 24.8 nM | 3.38 µM | CNCCN(C)Cc1c[nH]nc1-c1cc(OCCC(C)(C)O)cc(C(F)(F)F)c1 [Compound 93] | 4550 nM | –
0.158 µM | 25.5 nM | 0.823 µM | COCCOc1cc(-c2n[nH]cc2CN(C)CCN)cc(C(F)(F)F)c1 [Compound 94] | 6823 nM | –
0.108 µM | 26.7 nM | 5.13 µM | CNCCN(C)Cc1c[nH]nc1-c1cc(OCCOC)cc(OC(F)(F)F)c1 [Compound 96] | 1762 nM | –
0.342 µM | 30.9 nM | 2.66 µM | CNCCN(C)Cc1c[nH]nc1-c1cc(C(=O)NCCOC)cc(C(F)(F)F)c1 [Compound 101] | 11123 nM | –
0.0421 µM | 33.3 nM | 0.0274 µM | CNCCN(C)Cc1c[nH]nc1-c1cc(F)c(OCCOC)c(C(F)(F)F)c1 [Compound 103] | 850 nM | –
0.201 µM | 34 nM | 3.51 µM | CCC(CO)Oc1cc(-c2n[nH]cc2CN(C)CCNC)cc(C(F)(F)F)c1 (stereo not shown) [Compound 106] | 3700 nM | –
0.203 µM | 36.1 nM | 7.12 µM | CNCCN(C)Cc1c[nH]nc1-c1cc(OCCOC)cc(C(C)(C)C)c1 [Compound 109] | 1928 nM | –
0.252 µM | 36.7 nM | 0.955 µM | CNCCN(C)Cc1c[nH]nc1-c1ccc(N(C)C2CCOCC2)cc1 [Compound 111] | 1040 nM | –
0.317 µM | 39.2 nM | 2.32 µM | CNCCN(C)Cc1c[nH]nc1-c1ccc(N(C)C2CCOCC2)nc1 [Compound 117] | 8433 nM | –

Source: US20190077795A1, “ARGININE […] INHIBITORS AND USES THEREOF” (Epizyme, Inc., priority 2014, published 2019)
